According to US8092816B2, “Insecticidal compositions for control of general household pests” (priority 2004, dated 2012):

Columns and labels:
Red Imported Fire Ant = assay: Example 5: red imported fire ant knockdown and mortality, bifenthrin and imidacloprid; assay type: in vivo, Solenopsis invicta
Source text: (§1) The following examples further illustrate the present invention, but, of course, should not be construed as in any way limiting its scope. The examples set forth certain biological data illustrating the efficacy of the compositions of the present invention in controlling general household pests. Each example embodies a separate test wherein the pests were randomly selected from a population at a random age. As a result, from example to example, the ages of the pests can be very different. This age difference potentially translates to different baselines for each example. Therefore, data should only be compared within the example and not from example to example due to the differences in age of the pests from example to example. Unless otherwise indicated, all parts, percentages, and the like are by weight. The spray chamber used in the examples was approximately 76 inches tall, 73 inches long and 31 inches deep with an adjustable shelf (approximately 22 inches deep) and a movable spray nozzle. The spray chambers were calibrated to deliver a volume of approximately 1 gallon of liquid per 1000 square feet of area at about 14 pounds per square inch of pressure. A DeVilbiss hand held sprayer (Atomizer model 152) manufactured by DeVilbiss located in Glendale Heights, Ill. was used in testing house flies and mosquitoes. The DeVilbiss was used to apply approximately 3-5 milliliters of product at about 10 pounds per square inch.
The compositions of the present invention were tested for red imported fire ant activity in the following manner:
(§2) Test compositions made up of TALSTARONE® MULTI-INSECTICIDE and a wettable powder of imidacloprid (MERIT) in distilled water were prepared that provided appropriate rates of application of combinations of bifenthrin and imidacloprid, as well as bifenthrin and imidacloprid alone.
The spray chamber was then calibrated to deliver the treatment solution at the desired volume and pressure over the desired area on the chamber shelf. Spray chamber shelf height was adjusted to approximately 18 inches from the spray tip. The shelf was then covered with aluminum foil and the center of the shelf from front-to-back and end-to-end was determined. The red imported fire ants to be treated were collected and placed in screened 16 oz paper cups. The paper cups were placed onto the aluminum foil on the spray chamber shelf. The sprayer was activated and the test compound was applied to each paper cup interior. Red imported fire ant knockdown and mortality were measured.

American cockroach = assay: Example 3: American cockroach knockdown and mortality, bifenthrin and imidacloprid; assay type: in vivo
Source text: as §1
The compositions of the present invention were tested for American cockroach activity in the following manner:
as §2
(§3) The spray chamber was then calibrated to deliver the treatment solution at the desired volume and pressure over the desired area on the chamber shelf. Spray chamber shelf height was adjusted to approximately 18 inches from the spray tip. The shelf was then covered with aluminum foil and the center of the shelf from front-to-back and end-to-end was determined. A desired number of 4.0″ sieve circles were marked on the aluminum foil with a permanent marker. The inside of a desired number of PVC rings were coated with a petroleum jelly/mineral oil mixture (1:2 ratio). The PVC rings were place on the sieve circles. 10 male American cockroaches were placed inside each PVC ring. The sprayer was activated and the test compound was applied to each PVC ring interior. American cockroach knockdown and mortality were measured.

House Fly [1] = assay: Example 7: house fly knockdown and mortality, bifenthrin and imidacloprid; assay type: in vivo
Source text: as §1
(§4) The compositions of the present invention were tested for house fly activity in the following manner:
as §2
(§5) A DeVilbiss hand held sprayer was used to deliver the treatment solution at the desired volume and pressure. The house flies to be treated were collected and placed in screened 16 oz paper cups. The hand held sprayer was activated and the test compound was applied to each paper cup interior. House fly knockdown and mortality were measured.

German cockroach = assay: Example 8: German cockroach mortality, bifenthrin and thiamethoxam; assay type: in vivo
Source text: as §1
The compositions of the present invention were tested for German cockroach activity in the following manner:
(§6) Test compositions made up of TALSTARONE® MULTI-INSECTICIDE and a water dispersible granular of thiamethoxam (CENTRIC) in distilled water were prepared that provided appropriate rates of application of combinations of bifenthrin and thiamethoxam, as well as bifenthrin and thiamethoxam alone.
as §3, with “male German” for “male American”, “interior. German” for “interior. American”, “cockroach” for “cockroach knockdown and”, “mortality was” for “mortality were”

House Fly [2] = assay: Example 12: house fly knockdown and mortality, bifenthrin and thiamethoxam (higher thiamethoxam rates); assay type: in vivo
Source text: as §1, §4, §6, §5

Which “Knockdown Rate @ 5 minute” value (Red Imported Fire Ant; 10 PPM, 0.001% by weight) does the source give for `Cc1c(COC(=O)[C@@H]2[C@H](/C=C(\Cl)C(F)(F)F)C2(C)C)cccc1-c1ccccc1` (racemic) [A, 2-methylbiphenyl-3-ylmethyl (Z)-(1RS)-cis-3-(2-chloro-3,3,3-trifluoroprop-1-enyl)-2,2-dimethylcyclopropanecarboxylate] here?
Its value is 30%.

And the “Knockdown Rate @ 10 minute” value (Red Imported Fire Ant; 10 PPM, 0.001% by weight)?
Its value is 93%.

What about the “Knockdown Rate @ 15 minute” value (Red Imported Fire Ant; 10 PPM, 0.001% by weight) of the same molecule?
Its value is 95%.

And the “Knockdown Rate @ 30 minutes” value (Red Imported Fire Ant; 10 PPM, 0.001% by weight)?
The value was 100%.

What about the “Mortality Rate @ 60 minutes” value (Red Imported Fire Ant; 10 PPM, 0.001% by weight) of the same molecule?
The value was 65%.

And the “Mortality Rate @ 120 minutes” value (Red Imported Fire Ant; 10 PPM, 0.001% by weight)?
The value was 100%.

And the “Mortality Rate @ 4 hours” value (Red Imported Fire Ant; 10 PPM, 0.001% by weight)?
The value was 100%.

What about the “Mortality Rate @ 1 day” value (Red Imported Fire Ant; 10 PPM, 0.001% by weight) of the same molecule?
The value was 100%.

What about the “Knockdown Rate @ 5 minute” value (Red Imported Fire Ant; 50 PPM, 0.005% by weight) of the same molecule?
Its value is 10%.

What about the “Knockdown Rate @ 10 minute” value (Red Imported Fire Ant; 50 PPM, 0.005% by weight) of the same molecule?
The value was 70%.

What about the “Knockdown Rate @ 15 minute” value (Red Imported Fire Ant; 50 PPM, 0.005% by weight) of the same molecule?
The value was 95%.

What about the “Knockdown Rate @ 30 minutes” value (Red Imported Fire Ant; 50 PPM, 0.005% by weight) of the same molecule?
Its value is 100%.

And the “Mortality Rate @ 60 minutes” value (Red Imported Fire Ant; 50 PPM, 0.005% by weight)?
Its value is 100%.

And the “Mortality Rate @ 120 minutes” value (Red Imported Fire Ant; 50 PPM, 0.005% by weight)?
The value was 100%.

And the “Mortality Rate @ 4 hours” value (Red Imported Fire Ant; 50 PPM, 0.005% by weight)?
Its value is 100%.

What about the “Mortality Rate @ 1 day” value (Red Imported Fire Ant; 50 PPM, 0.005% by weight) of the same molecule?
The value was 100%.

What about the “Knockdown Rate @ 15 minute” value (American cockroach; 10 PPM, 0.001% by weight) of the same molecule?
Its value is 0%.

And the “Knockdown Rate @ 30 minute” value (American cockroach; 10 PPM, 0.001% by weight)?
The value was 0%.

What about the “Mortality Rate @ 60 minutes” value (American cockroach; 10 PPM, 0.001% by weight) of the same molecule?
Its value is 0%.

What about the “Mortality Rate @ 120 minutes” value (American cockroach; 10 PPM, 0.001% by weight) of the same molecule?
Its value is 0%.

And the “Mortality Rate @ 4 hours” value (American cockroach; 10 PPM, 0.001% by weight)?
The value was 5%.

And the “Mortality Rate @ 1 day” value (American cockroach; 10 PPM, 0.001% by weight)?
Its value is 15%.

And the “Mortality Rate @ 2 days” value (American cockroach; 10 PPM, 0.001% by weight)?
The value was 25%.

And the “Knockdown Rate @ 15 minute” value (American cockroach; 50 PPM, 0.005% by weight)?
The value was 0%.

What about the “Knockdown Rate @ 30 minute” value (American cockroach; 50 PPM, 0.005% by weight) of the same molecule?
The value was 0%.

And the “Mortality Rate @ 60 minutes” value (American cockroach; 50 PPM, 0.005% by weight)?
The value was 5%.

What about the “Mortality Rate @ 120 minutes” value (American cockroach; 50 PPM, 0.005% by weight) of the same molecule?
Its value is 5%.

And the “Mortality Rate @ 4 hours” value (American cockroach; 50 PPM, 0.005% by weight)?
The value was 10%.

What about the “Mortality Rate @ 1 day” value (American cockroach; 50 PPM, 0.005% by weight) of the same molecule?
Its value is 65%.

What about the “Mortality Rate @ 2 days” value (American cockroach; 50 PPM, 0.005% by weight) of the same molecule?
The value was 70%.

What about the “Knockdown Rate @ 15 minute” value (House Fly [1]; 10 PPM, 0.001% by weight) of the same molecule?
Its value is 0%.

And the “Knockdown Rate @ 30 minute” value (House Fly [1]; 10 PPM, 0.001% by weight)?
The value was 0%.

And the “Knockdown Rate @ 45 minutes” value (House Fly [1]; 10 PPM, 0.001% by weight)?
The value was 17%.

And the “Knockdown Rate @ 60 minutes” value (House Fly [1]; 10 PPM, 0.001% by weight)?
The value was 40%.

What about the “Knockdown Rate @ 120 minutes” value (House Fly [1]; 10 PPM, 0.001% by weight) of the same molecule?
Its value is 63%.

And the “Knockdown Rate @ 4 hours” value (House Fly [1]; 10 PPM, 0.001% by weight)?
The value was 50%.

What about the “Mortality Rate @ 1 day” value (House Fly [1]; 10 PPM, 0.001% by weight) of the same molecule?
The value was 30%.

What about the “Knockdown Rate @ 15 minute” value (House Fly [1]; 50 PPM, 0.005% by weight) of the same molecule?
The value was 0%.

And the “Knockdown Rate @ 30 minute” value (House Fly [1]; 50 PPM, 0.005% by weight)?
Its value is 78%.

What about the “Knockdown Rate @ 45 minutes” value (House Fly [1]; 50 PPM, 0.005% by weight) of the same molecule?
Its value is 97%.

And the “Knockdown Rate @ 60 minutes” value (House Fly [1]; 50 PPM, 0.005% by weight)?
The value was 97%.

What about the “Knockdown Rate @ 120 minutes” value (House Fly [1]; 50 PPM, 0.005% by weight) of the same molecule?
Its value is 97%.

What about the “Knockdown Rate @ 4 hours” value (House Fly [1]; 50 PPM, 0.005% by weight) of the same molecule?
Its value is 97%.

And the “Mortality Rate @ 1 day” value (House Fly [1]; 50 PPM, 0.005% by weight)?
Its value is 97%.

What about the “Mortality Rate @ 60 minutes” value (German cockroach; 10 PPM, 0.001% by weight) of the same molecule?
The value was 8%.

And the “Mortality Rate @ 120 minutes” value (German cockroach; 10 PPM, 0.001% by weight)?
The value was 33%.

And the “Mortality Rate @ 1 day” value (German cockroach; 10 PPM, 0.001% by weight)?
Its value is 35%.

And the “Mortality Rate @ 2 day” value (German cockroach; 10 PPM, 0.001% by weight)?
Its value is 60%.

What about the “Mortality Rate @ 4 days” value (German cockroach; 10 PPM, 0.001% by weight) of the same molecule?
The value was 98%.

And the “Mortality Rate @ 60 minutes” value (German cockroach; 50 PPM, 0.005% by weight)?
Its value is 15%.

What about the “Mortality Rate @ 120 minutes” value (German cockroach; 50 PPM, 0.005% by weight) of the same molecule?
Its value is 48%.

And the “Mortality Rate @ 1 day” value (German cockroach; 50 PPM, 0.005% by weight)?
Its value is 58%.

And the “Mortality Rate @ 2 day” value (German cockroach; 50 PPM, 0.005% by weight)?
Its value is 100%.

What about the “Mortality Rate @ 4 days” value (German cockroach; 50 PPM, 0.005% by weight) of the same molecule?
Its value is 100%.

And the “Knockdown Rate @ 15 minute” value (House Fly [2]; 10 PPM, 0.001% by weight)?
The value was 0%.

What about the “Knockdown Rate @ 30 minute” value (House Fly [2]; 10 PPM, 0.001% by weight) of the same molecule?
Its value is 0%.

And the “Knockdown Rate @ 45 minutes” value (House Fly [2]; 10 PPM, 0.001% by weight)?
The value was 17%.

What about the “Knockdown Rate @ 60 minutes” value (House Fly [2]; 10 PPM, 0.001% by weight) of the same molecule?
The value was 40%.

And the “Knockdown Rate @ 120 minutes” value (House Fly [2]; 10 PPM, 0.001% by weight)?
The value was 63%.

And the “Knockdown Rate @ 4 hours” value (House Fly [2]; 10 PPM, 0.001% by weight)?
The value was 50%.

What about the “Mortality Rate @ 1 day” value (House Fly [2]; 10 PPM, 0.001% by weight) of the same molecule?
Its value is 30%.

What about the “Knockdown Rate @ 15 minute” value (House Fly [2]; 50 PPM, 0.005% by weight) of the same molecule?
The value was 0%.

And the “Knockdown Rate @ 30 minute” value (House Fly [2]; 50 PPM, 0.005% by weight)?
The value was 78%.

What about the “Knockdown Rate @ 45 minutes” value (House Fly [2]; 50 PPM, 0.005% by weight) of the same molecule?
The value was 97%.

And the “Knockdown Rate @ 60 minutes” value (House Fly [2]; 50 PPM, 0.005% by weight)?
Its value is 97%.

And the “Knockdown Rate @ 120 minutes” value (House Fly [2]; 50 PPM, 0.005% by weight)?
The value was 97%.

What about the “Knockdown Rate @ 4 hours” value (House Fly [2]; 50 PPM, 0.005% by weight) of the same molecule?
The value was 97%.

What about the “Mortality Rate @ 1 day” value (House Fly [2]; 50 PPM, 0.005% by weight) of the same molecule?
Its value is 97%.
